Data as given in patent US11708338B2, “Substituted phenyl sulfonyl phenyl triazole thiones and uses thereof” (Neuropore Therapies, Inc., priority 2017, dated 2023).

Tests used:
[1] = system: monomeric ASYN; assay: ProteinSimple western biochemical evaluation of monomeric ASYN in cytosolic fraction of brain homogenates; type: in vivo, mouse; details: L61 ASYN transgenic mice, 1, 5 or 10 mg/kg per day i.p., 1 month
Description: Multiple in vivo administration studies of Compound 1 were carried out in the Line 61 (L61) mThy1-alpha-synuclein transgenic mouse model of Parkinson's disease (PD). The mThy1-alpha-synuclein transgenic mouse model overexpresses wild-type human ASYN under the Thy-1 promoter studies (commonly referred to as Line 61 transgenic mice; Rockenstein et al., 2002). […]
Alpha-synuclein (ASYN) is a neuronal protein whose dysregulation has been implicated in the pathogenesis of PD. The effects of Compound 1 on alpha-synuclein aggregation were assessed in both L61 ASYN transgenic and non-transgenic mice in a 1 month administration study. […] At the end of one month, the mice were sacrificed, and immunohistochemical (IHC) detection of total alpha-synuclein deposits, insoluble alpha-synuclein deposits (PK+resistant), microtubule-associated protein 1A/1B-light chain 3 (LC3), and monomeric alpha-synuclein levels were assessed in the harvested brain tissues.
Biochemical evaluations were conducted using a ProteinSimple© western biochemical evaluation. Briefly, samples were mixed with pre-calculated volumes of 0.1×Sample Buffer and 5×Fluorescent Master Mix to make a final sample concentration of 0.4 mg/mL in 10 μL solution for signal optimization and evaporation reduction. […]

[2] = system: dopaminergic (DAT) transporter; assay: DAT IHC immunolabeling in striatum, striatal-to-reference ratio; type: in vivo, mouse; details: L61 ASYN transgenic mice, 3 months
Description: The harvested brain tissues were drop fixed using 4% PFA and sectioned on a vibratome, and representative sections corresponding to the striatum and cerebellum were assessed for DAT with IHC staining.
Immunolabeling studies of DAT were conducted using a monoclonal antibody (1:500; MAB369; Millipore, Temecula, Calif.) and a biotinylated secondary antibody (1:100; BA4000, Vector Labs) and analysis was performed on blindcoded sections from Line 61 transgenic and non-transgenic mice. Slides were digitized using a high resolution automated Nanozoomer slide scanner (Hamamatsu Corp.). Digitized images were analyzed using Halo (Indica Labs) image analysis software package by placing an ROI frame within the dorsal striatum and another within a separate reference brain region (for normalization of DAT signal). A thresholding algorithm was defined and then applied equally to all images to determine the average optical density of DAT immunolabeling across each ROI The results of the analysis were then exported for graphing and statistical analysis and the striatal DAT:cortical (reference region) DAT optical densities ratio was calculated for each subject.
Quantification of DAT density was carried out by calculating the immunofluorescence in striatal sections against that in cerebellum sections to derive a striatal-to-reference ratio.

`O=S(=O)(c1ccc(-n2cn[nH]c2=S)cc1)c1ccc(Cl)c(C(F)(F)F)c1` [Compound 1, 4-(4-((4-chloro-3-(trifluoromethyl)phenyl)sulfonyl)phenyl)-2,4-dihydro-3H-1,2,4-triazole-3-thione] was tested, and the “cortical levels of monomeric ASYN in cytosolic fraction of brain homogenates” value [1] was “reduced”, the “hippocampal levels of monomeric ASYN in cytosolic fraction of brain homogenates” value [1] was “reduced” and the “striatal levels of DAT, staining intensity in representative images (FIG. 18) vs vehicle-treated L61 mice” value ([2]; 5 mg/kg or 10 mg/kg daily) was “restoring striatal levels of DAT”. For the same molecule, the “DAT striatal-to-reference ratio, quantification (FIG. 19)” value ([2]; 10 mg/kg dose) was “reduces the GFAP levels in a statistically significant manner”.
